Laboratory results as given in publication PMC8037948, “Assessing the In Vitro Inhibitory Effects on Key Enzymes Linked to Type-2 Diabetes and Obesity and Protein Glycation by Phenolic Compounds of Lauraceae Plant Species Endemic to the Laurisilva Forest” (Molecules, 2021).

Key:
[1] = molecular target: T1, human aldose reductase (HAR) (Homo sapiens, UniProt P15121); experiment: NADPH absorbance at […] nm; format: biochemical
T1 construct: gene AKR1B1; commercial enzyme from Prozomix

[2] = molecular target: T2, rat α-glucosidase (intestinal acetone powder from rat); experiment: p-nitrophenyl alpha-D-glucopyranoside hydrolysis, absorbance at […] nm; format: biochemical; details: alpha-pNPG, 0.1 M phosphate pH 6.9, 37 °C, 20 min; crude intestinal extract
T2 construct: gene Si; supernatant of rat intestinal acetone powder (Sigma-Aldrich), crude extract; several alpha-glucosidases

IC50 [1]	α-Glucosidase [2]	SMILES
2620 µM		Oc1cc(O)c2c(c1)O[C@H](c1ccc(O)c(O)c1)[C@@H](O)C2 [(+)-Catechin]
	0.12 ± 0.01 mg/mL	C[C@H]1O[C@H](O[C@H]2[C@H](O)[C@@H](O)[C@@H](O[C@H]3[C@H](O)[C@@H](O)C(O)O[C@@H]3CO)O[C@@H]2CO)[C@H](O)[C@@H](O)[C@@H]1N[C@H]1C=C(CO)[C@@H](O)[C@H](O)[C@H]1O (stereo partly drawn) [Acarbose]
	0.01 ± 0.01 mg/mL	OC[C@H]1NC[C@H](O)[C@@H](O)[C@@H]1O [1-Deoxynojirimycin]
